The test system of assay [1] is VTT-E-193585 strain. Nature of the assay: Antibiotic susceptibility (MIC), CLSI M07 broth microdilution / agar dilution. The settings on record: comparison of MIC values of Table 5. It counts as cell-based, Xanthobacter sp. The method, then: (§1) Escherichia coli ATCC 25922 was used as quality control strain and it was incubated in aerobic conditions, at +35±2° C. for 18±2 hours.

The subject of assay [2] is Escherichia coli ATCC 25922. Nature of the assay: Antibiotic susceptibility (MIC), quality control strain. It counts as cell-based. The following applies: E. coli ATCC 25922, 18 h ± 2 h, aerobic, +35±2° C.; for MIC: Escherichia coli, ATCC25922, read-out: Minimum Inhibitory Concentration (MIC). The method, then:
as §1

Assay [3] relates to VTT-E-193585 strain. Nature of the assay: Antibiotic susceptibility (MIC), CLSI M07 broth microdilution / agar dilution. It is filed as cell-based, Xanthobacter sp. The following applies: VTT-E-193585, 48 h ± 1 h, aerobic, +35±2° C., cation-adjusted Mueller Hinton Broth, fosfomycin by agar dilution; for MIC: read-out: Minimum Inhibitory Concentration (MIC). In general terms: Dilution methods test growth across graded concentrations, often in twofold steps.

In brackets after ≈: the same amount, converted by molar mass.

For `CC1(C)S[C@@H]2[C@H](NC(=O)[C@H](N)c3ccccc3)C(=O)N2[C@H]1C(=O)O` [Ampicillin, ampicillin], the “MIC for VTT-E-193585 compared with E. coli ATCC 25922” value in the assay with VTT-E-193585 strain [1] is listed as “higher”. Also, the MIC in assay [2] was found to be 8 µg/mL (≈ 22.9 µM); with VTT-E-193585 strain [3], 16 µg/mL (≈ 45.8 µM).
With `C[C@@H]1O[C@@H]1P(=O)(O)O` [Fosfomycin, fosfomycin], the “MIC for VTT-E-193585 compared with E. coli ATCC 25922” value in the assay with VTT-E-193585 strain [1] was “higher”. Also, the MIC in assay [2] is 0.5 µg/mL (≈ 3.62 µM); with VTT-E-193585 strain [3], 32 µg/mL (≈ 232 µM).
With `NC[C@H]1O[C@H](O[C@H]2[C@H](O)[C@@H](O[C@H]3O[C@H](CO)[C@@H](O)[C@H](N)[C@H]3O)[C@H](N)C[C@@H]2N)[C@H](O)[C@@H](O)[C@@H]1O` [Kanamycin, kanamycin], the MIC in assay [2] is 4 µg/mL (≈ 8.26 µM); in the assay on VTT-E-193585 strain [3], 2 µg/mL (≈ 4.13 µM).
Turning to `[H]/N=C(/N)N[C@H]1[C@H](O)[C@@H](O)[C@H](O[C@@H]2O[C@@H](C)[C@](O)(C=O)[C@H]2O[C@@H]2O[C@@H](CO)[C@H](O)[C@@H](O)[C@@H]2NC)[C@@H](N/C(N)=N\[H])[C@@H]1O` [Streptomycin, streptomycin], in the assay on VTT-E-193585 strain [1], the “MIC for VTT-E-193585 compared with E. coli ATCC 25922” value is “lower or comparable”. Further, the MIC in assay [2] is 4 µg/mL (≈ 6.88 µM); in the assay on VTT-E-193585 strain [3], 0.5 µg/mL (≈ 0.86 µM).
Consider `CN(C)[C@@H]1C(O)=C(C(N)=O)C(=O)[C@@]2(O)C(O)=C3C(=O)c4c(O)cccc4[C@@](C)(O)[C@H]3C[C@@H]12` [Tetracycline, tetracycline], for which the MIC in assay [2] was found to be 1 µg/mL (≈ 2.25 µM); with VTT-E-193585 strain [3] it was 0.25 µg/mL (≈ 0.563 µM).
Take colistin: the “MIC for VTT-E-193585 compared with E. coli ATCC 25922” value against VTT-E-193585 strain [1] is “higher”. In addition, the “Minimum Inhibitory Concentration (MIC)” value in assay [2] was 2 µg/mL; with VTT-E-193585 strain [3], 4 µg/mL.
With gentamicin, in the assay with VTT-E-193585 strain [1], the “MIC for VTT-E-193585 compared with E. coli ATCC 25922” value is recorded as “lower or comparable”. Besides, the “Minimum Inhibitory Concentration (MIC)” value (in assay [2]; with VTT-E-193585 strain [3]) was 0.5 µg/mL in each case.
